In this assay the test system is TNFα-Freisetzung. Kind of assay: Inhibition of TNFα release after LPS stimulation of human whole blood (ELISA). In kind it is cell-based. The note with it: for inhibition at 0.01 µM / inhibition at 0.1 µM: Homo sapiens, 24 h, read-out: TNFα-Freisetzung hemmen. From the text:
Methodenbeschreibung der Hemmung der TNFα Freisetzung nach LPS Stimulation von humanem Vollblut
Die Stimulierung isolierter Leukozyten für die Freisetzung von Zytokinen kann auf verschiedenen Wegen erfolgen. Lipopolysaccharide (LPS) stellen einen Stimulus für die Untersuchung der Freisetzung von TNFα dar. LPS ist Bestandteil bakterieller Zellwände und wird beim Abtöten der Bakterien (durch Antibiotika oder das natürliche Immunsystem) freigesetzt. LPS stimuliert insbesondere die Aktivität phagozytierender Leukozyten (Gewebsmakrophagen, Granulozyten, Monozyten) und verursacht die Infiltration von Leukozyten vom peripheren Blut in das betroffene Gewebe. Ein Zytokin von besonderer Bedeutung für diese Mechanismen ist TNFα, das in großen Mengen durch die betroffenen Zellen sezerniert wird. Hauptquelle dabei sind Monozyten und Makrophagen. TNFα initiiert und prolongiert den Entzündungsprozess im Zusammenspiel mit anderen Mediatoren.
Für die Untersuchung des Effektes auf die LPS-induzierte TNFα-Freisetzung wurde eine Methode verwendet, die von MARX et al. (Marx D, Tassabehji M, Heer S, Hüttenbrink KB, Szelenyi I (2002) Pulmonary Pharmacology & Therapeutics 15 7-15) beschrieben wurde. Die Methode in Kürze: Humanes Blut wurde von verschiedenen Spendern entnommen, durch Zusatz von 10 mM Na-Citrat ungerinnbar gemacht und 1:5 mit RPMI 1640 Zellkulturmedium verdünnt. Die Testsubstanzen wurden den Blutproben in verschiedenen Konzentrationen zugefügt. 15 Minuten später wurden die Leukozyten durch Zusatz von Lipopolysacchariden (LPS) aus Salmonella abortus equi in einer Endkonzentration von 1µg/ml stimuliert. Nach Inkubation der Testansätze für 24 Stunden bei 37°C. und unter 5% CO2 in wassergesättigter Luft, wurde das Blut zentrifugiert und die Konzentration an TNFα im zellfreien Überstand unter Verwendung eines käuflichen ELISA (BD Biosciences) nach Angaben des Herstellers exakt vermessen.
For orientation: An ELISA detects its analyte on a solid surface through an enzyme-linked reagent.

Consider 13 molecules from patent publication EP1619197A1, “Substituted Pyrido[3',2':4,5]thieno[3,2-d]pyrimidin-2,4(1H,3H)diones and -4(3H)ones as well as Pyrido[3',2':4,5]furo[3,2-d]-pyrimidin-2,4(1H,3H)diones und -4(3H)ones as inhibitors of TNF-alpha release” (Curacyte Discovery GmbH, priority 2004, dated 2006).

As for `CCc1nc2c(sc3nc(-c4ccccc4)cc(C)c32)c(=O)[nH]1` [2-Ethyl-9-methyl-7-phenyl-pyrido[3',2':4,5]thieno[3,2-d]pyrimidin-4-on], the inhibition at 0.01 µM (bei 10nM) is over 20%.

As to `Cc1cc(C)c2c(n1)sc1c(=O)[nH]c(=O)[nH]c12` [7,9-Dimethyl-pyrido[3',2':4,5]thieno[3,2-d]pyrimidin-2,4-dion], the inhibition at 0.01 µM (bei 10nM) is over 20%.

On to `O=c1[nH]c(=O)c2sc3nc(-c4ccccc4)cc(-c4ccccc4)c3c2[nH]1` [7,9-Diphenyl-pyrido[3',2':4,5]thieno[3,2-d]pyrimidin-2,4-dion], for which, under “bei 100nM”, the inhibition at 0.1 µM is over 10%.

Take `COc1ccc(-c2cc(C)c3c(n2)sc2c(=O)[nH]c(=O)[nH]c23)cc1OC` [7-(3,4-Dimethoxyphenyl)-9-methyl-pyrido[3',2':4,5]thieno[3,2-d]pyrimidin-2,4-dion]: the inhibition at 0.01 µM (bei 10nM) was over 20%.

`Cc1nc2c(sc3nc(-c4ccc(Br)cc4)cc(C)c32)c(=O)[nH]1` [7-(4-Brom-phenyl)-2,9-dimethyl pyrido[3',2':4,5]thieno[3,2-d]pyrimidin-4(3H)-on] gave a TNFα-Freisetzung hemmen (bei 100nM) of over 10%.

`Cc1cc(-c2ccc(F)cc2)nc2sc3c(=O)[nH]c(=O)[nH]c3c12` [7-(4-Fluorphenyl)-9-methyl-pyrido[3',2':4,5]thieno[3,2-d]pyrimidin-2,4-dion]: the TNFα-Freisetzung hemmen (bei 10nM) is listed as over 20%.

As to `COc1ccc(-c2cc(C)c3c(n2)sc2c(=O)[nH]c(=O)[nH]c23)cc1` [7-(4-Methoxyphenyl)-9-methyl-pyrido[3',2':4,5]thieno[3,2-d]pyrimidin-2,4-dion], where the note is “bei 10nM”, the inhibition at 0.01 µM was over 20%.

In the case of `CCCc1nc2c(sc3nc(-c4ccccc4)cc(-c4cccnc4)c32)c(=O)[nH]1` [7-Phenyl-2-n-propyl-9-(pyrid-3-yl)-pyrido[3',2':4,5]thieno[3,2-d]pyrimidin-4(3H)-on], where the note is “bei 10nM”, the inhibition at 0.01 µM is over 20%.

The molecule `O=C(O)c1nc2c(sc3nc(-c4ccccc4)ccc32)c(=O)[nH]1` [7-Phenyl-pyrido[3',2':4,5]thieno[3,2-d]pyrimidin-4(3H)-on-2-carbonsäure] yielded a TNFα-Freisetzung hemmen (bei 10nM) of over 20%.

On to `CCOC(=O)c1nc2c(sc3nc(-c4ccccc4)ccc32)c(=O)[nH]1` [7-Phenyl-pyrido[3',2':4,5]thieno[3,2-d]pyrimidin-4(3H)-on-2-carbonsäureethylester], for which the TNFα-Freisetzung hemmen (bei 100nM) is over 10%.

Consider `CSc1nc2c(sc3nc(-c4ccccc4)cc(C)c32)c(=O)[nH]1` [9-Methyl-2-methylthio-7-phenyl-pyrido[3',2':4,5]thieno[3,2-d]pyrimidin-4(3H)-on], for which, where the note is “bei 100nM”, the inhibition at 0.1 µM was over 10%.

With `Cc1cc(-c2ccccc2)nc2sc3c(=O)[nH]c(=O)[nH]c3c12` [9-Methyl-7-phenyl-pyrido[3',2':4,5]thieno[3,2-d]pyrimidin-2,4-dion], where the note is “bei 10nM”, the inhibition at 0.01 µM was over 20%.

`Cc1c(-c2ccc([N+](=O)[O-])cc2)c(-c2ccccc2)nc2sc3c(=O)[nH]c(=O)[nH]c3c12` [9-Methyl-8-(4-nitrophenyl)-7-phenyl-pyrido[3',2':4,5]thieno[3,2-d]pyrimidin-2,4(1H,3H)-dion]: the inhibition at 0.1 µM (bei 100nM) was over 10%.
